US5543410A, “Pharmacological use of phthaloylhydrazide derivatives; combination and application thereof” (L.I.M.A.D. Limited, priority 1993, dated 1996)

System: toxins

## Nc1cccc2c(=O)[nH][nH]c(=O)c12
After administration, acute phase
  time to therapeutic effect: twenty to thirty
Within a one-day period
  injections sufficient for complete elimination of pathological indications: one or two
